Measurements as given in patent US8685916B2, “Opioid prodrugs with heterocyclic linkers” (Signature Therapeutics, Inc., priority 2011, dated 2014).
Where two headings read alike, the source gives them in different places.

Assays:
[1] = biological target: T1, trypsin (Bos taurus, UniProt P00760); test: In vitro trypsin-mediated cleavage of hydrocodone prodrugs; format: biochemical, bovine; conditions: bovine, trypsin from bovine pancreas, pH 8; adjusted to 4815 BAEE U trypsin/mL; read-out: Prodrug trypsin half-life (converted)
T1 construct: purchased Sigma-Aldrich T8003; host or cells: bovine pancreas (tissue-derived preparation)
T1 sequence (P00760 24-246): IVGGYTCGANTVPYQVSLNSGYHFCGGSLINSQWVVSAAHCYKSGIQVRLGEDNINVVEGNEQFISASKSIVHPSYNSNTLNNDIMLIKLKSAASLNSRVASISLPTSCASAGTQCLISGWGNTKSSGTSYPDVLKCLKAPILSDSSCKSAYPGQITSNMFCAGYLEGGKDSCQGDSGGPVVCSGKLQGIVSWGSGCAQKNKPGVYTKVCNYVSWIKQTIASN
Experimental: (§1) The reactions were conducted at 37° C. for 24 h.
(§2) Table 9 indicates the results of exposure of the tested prodrugs to trypsin.

[2] = Pharmacokinetics of oxycodone prodrugs following PO administration to dogs; conditions: oxycodone in dog plasma, 5.7-[…] (prodrugs 4.15-[…]; oxycodone 2 mg/kg; OxyContin 20 mg tablet)
[3] = biological target: T1, trypsin; test: In vitro trypsin-mediated cleavage of oxycodone prodrugs; format: biochemical, bovine; conditions: bovine, trypsin from bovine pancreas; 0.761 mM prodrug, Tris pH 8, 37° C.; adjusted to 4815 BAEE U trypsin/mL
Experimental: as §1
(§3) Table 4 indicates the results of exposure of the tested prodrugs to trypsin. […] Table 4 also indicates the cyclization rate of the cyclizable spacer leaving group of Compound KC-9, Compound KC-11, and Compound KC-18. The results are expressed as half-life of compound disappearance. For Compound KC-11, a diastereomer, two peaks (A and B) were analyzed.

[4] = biological target: T2, trypsin from bovine pancreas (Bos taurus, UniProt P00760); test: as above; format: biochemical; conditions: 0.761 mM prodrug, Tris pH 8, 37° C.
T2 construct: purchased Sigma-Aldrich T8003; host or cells: bovine pancreas (tissue-derived preparation)
T2 sequence (P00760 24-246): T1 sequence (P00760 24-246)
Experimental: as §1, §3

[5] = Pharmacokinetics following PO administration of ketone-modified oxycodone prodrugs to rats
[6] = biological target: T2, trypsin from bovine pancreas; test: In vitro trypsin-mediated cleavage of hydrocodone prodrugs; format: biochemical
Experimental: as §1, §2

[7] = biological target: T1, trypsin; test: In vitro trypsin conversion of Compound TP-5 to tapentadol and inhibition by Compound 109; format: biochemical, bovine; conditions: bovine, trypsin from bovine pancreas, read-out: Pro-drug trypsin half-life, Average ± sd (converted)
Experimental: (§4) Other reaction, incubation, sample treatment and analysis procedures were similar to those described in Example 39.

[8] = biological target: T2, trypsin from bovine pancreas; test: as above; format: biochemical
Experimental: as §4

[9] = Pharmacokinetics following PO administration of increasing doses of Compound KC-31 to rats; conditions: male, Sprague Dawley, rat, plasma, 10 mg/kg
[10] = Pharmacokinetics of hydrocodone prodrugs following PO administration to dogs, with or without Compound 109
[11] = Oral administration of hydrocodone prodrugs KC-40 or KC-50 co-dosed with Compound 109 to rats; conditions: rat; for Cmax: HC Cmax ± sd
[12] = oxycodone in rat plasma, 28-34 μmol/kg (prodrugs 16-24 mg/kg; oxycodone 10 mg/kg)

COc1ccc2c3c1O[C@H]1C(OC(=O)N4CC(C(=O)O)CCC4CNC(=O)[C@H](CCCNC(=N)N)NC(=O)CNC(C)=O)=CC[C@H]4[C@@H](C2)N(C)CC[C@]314 (mixture of isomers) [Compound KC-32, N-(hydrocodone-6-enol-carbonyl)-[(2-methylamino)piperidine-3-carboxylate]-L-arginine-glycine-acetate]
half-life at 0.761 mM [1]: 9 min

COc1ccc2c3c1O[C@H]1C(OC(=O)N(C)CCNC(=O)[C@H](CCCNC(=N)N)NC(=O)CC(=O)O)=CC[C@@]4(O)[C@@H](C2)N(C)CC[C@]314 [Compound KC-3, N-1-[2-(oxycodone-6-enol-carbonyl-methyl-amino)-ethylamine]-L-arginine-malonate]
AUC ± sd [2]: 65.6 ± 22 ng·h/mL | OC Cmax ± sd [2]: 10.2 ± 3.3 ng/mL

COc1ccc2c3c1O[C@H]1C(OC(=O)N4CCCC4CNC(=O)[C@H](CCCNC(=N)N)NC(=O)CC(=O)O)=CC[C@@]4(O)[C@@H](C2)N(C)CC[C@]314 (stereo partly drawn) [Compound KC-10, N-(oxycodone-6-enol-carbonyl)pyrrolidine-2-methylamine-L-arginine-malonate]
half-life at 0.761 mM [3]: 9.01 ± 0.306 min | OC formation rate [4]: 0.00274 ± 0.00027 μmol/h/BAEE U

COc1ccc2c3c1O[C@H]1C(OC(=O)N4CCCCC4CN)=CC[C@@]4(O)[C@@H](C2)N(C)CC[C@]314 (some centres unmarked) [Compound KC-11, N-(oxycodone-6-enol-carbonyl)piperidine-2-methylamine]
AUC ± sd ([5]; oxycodone in rat plasma, 0 to 24 h, 28-34 μmol/kg (prodrugs 16-24 mg/kg; oxycodone 10 mg/kg)): 57.0 ± 9.0 ng·h/mL | OC Cmax ± sd [5, 12]: 13.6 ± 3.0 ng/mL | Tmax ± sd [5, 12]: 60 ± 0 min | release of oxycodone compared with Compound KC-9 ([5]; rats): significantly more oxycodone than does Compound KC-9

COc1ccc2c3c1O[C@H]1C(OC(=O)N4CCCCC4CNC(=O)[C@H](CCCNC(=N)N)NC(=O)CC(=O)O)=CC[C@@]4(O)[C@@H](C2)N(C)CC[C@]314 (stereo partly drawn) [Compound KC-12, N-(oxycodone-6-enol-carbonyl)piperidine-2-methylamine-L-arginine-malonate]
half-life at 0.761 mM [3]: 9.498 ± 0.0114 min | OC formation rate [4]: 0.231 ± 0.0097 μmol/h/BAEE U

COc1ccc2c3c1O[C@H]1C(OC(=O)N4CCCCC4CNC(=O)[C@H](CCCNC(=N)N)NC(=O)[C@H](C)NC(C)=O)=CC[C@@]4(O)[C@@H](C2)N(C)CC[C@]314 (stereo partly drawn) [Compound KC-13, N-(oxycodone-6-enol-carbonyl)piperidine-2-methylamine-L-arginine-L-alanine-acetate]
half-life at 0.761 mM [3]: 0.0458 ± 0.00051 min | OC formation rate [4]: 47.1 ± 5.72 μmol/h/BAEE U

COc1ccc2c3c1O[C@H]1C(OC(=O)N4CCCCC4CNC(=O)[C@H](CCCNC(=N)N)NC(=O)CNC(C)=O)=CC[C@@]4(O)[C@@H](C2)N(C)CC[C@]314 (stereo partly drawn) [Compound KC-14, N-(oxycodone-6-enol-carbonyl)piperidine-2-methylamine-L-arginine-glycine-acetate]
half-life at 0.761 mM [3]: 0.5143 ± 0.00198 min | OC formation rate [4]: 5.48 ± 0.1 μmol/h/BAEE U

COc1ccc2c3c1O[C@H]1C(OC(=O)N4CCCCC4CNC(=O)[C@H](CCCNC(=N)N)NC(=O)[C@H](C)NC(=O)CC(=O)O)=CC[C@@]4(O)[C@@H](C2)N(C)CC[C@]314 (stereo partly drawn) [Compound KC-15, N-(oxycodone-6-enol-carbonyl)piperidine-2-methylamine-L-arginine-L-alanine-malonate]
half-life at 0.761 mM [3]: 0.173 ± 0.0114 min | OC formation rate [4]: 22.3 ± 0.8 μmol/h/BAEE U

COc1ccc2c3c1O[C@H]1C(OC(=O)N4CCCCC4CNC(=O)[C@H](CCCNC(=N)N)NC(=O)CNC(=O)CC(=O)O)=CC[C@@]4(O)[C@@H](C2)N(C)CC[C@]314 (stereo partly drawn) [Compound KC-16, N-(oxycodone-6-enol-carbonyl)piperidine-2-methylamine-L-arginine-glycine-malonate]
half-life at 0.761 mM [3]: 2.37 ± 0.162 min | OC formation rate [4]: 1.46 ± 0.093 μmol/h/BAEE U

COc1ccc2c3c1O[C@H]1C(OC(=O)N4CCCC[C@@H]4CNC(=O)[C@H](CCCNC(=N)N)NC(=O)CNC(=O)CC(=O)O)=CC[C@@]4(O)[C@@H](C2)N(C)CC[C@]314 [Compound KC-17, N-(oxycodone-6-enol-carbonyl)-R-(piperidine-2-methylamine)-L-arginine-glycine-malonate]
half-life at 0.761 mM [3]: 2.65 ± 0.117 min | OC formation rate [4]: 1.23 ± 0.011 μmol/h/BAEE U

COc1ccc2c3c1O[C@H]1C(OC(=O)N4CCCC[C@@H]4CNC(=O)[C@H](CCCNC(=N)N)NC(=O)CNC(=O)CC(=O)O)=CC[C@H]4[C@@H](C2)N(C)CC[C@]314 [Compound KC-31, N-(hydrocodone-6-enol-carbonyl)-R-(piperidine-2-methylamine)-L-arginine-glycine-malonate]
half-life at 0.761 mM [1]: 3.9 min

COc1ccc2c3c1O[C@H]1C(OC(=O)N4CCCC[C@@H]4CNC(=O)[C@H](CCCNC(=N)N)NC(=O)[C@H](C)NC(=O)CC(=O)O)=CC[C@H]4[C@@H](C2)N(C)CC[C@]314 [Compound KC-35, N-(hydrocodone-6-enol-carbonyl)-R-(piperidine-2-methylamine)-L-arginine-L-alanine-malonate]
half-life at 0.761 mM [1]: 0.48 min

COc1ccc2c3c1O[C@H]1C(OC(=O)N4CCCC[C@@H]4CNC(=O)[C@H](CCCNC(=N)N)NC(=O)CNC(C)=O)=CC[C@H]4[C@@H](C2)N(C)CC[C@]314 [Compound KC-36, N-(hydrocodone-6-enol-carbonyl)-R-(piperidine-2-methylamine)-L-arginine-glycine-acetate]
half-life at 0.761 mM [1]: 1.08 min | HC formation rate [6]: 0.004 ± 0.00 μmol/h/BAEE U

COc1ccc2c3c1O[C@H]1C(OC(=O)N4CCCC[C@@H]4CNC(=O)[C@H](CCCNC(=N)N)NC(=O)[C@H](C)NC(C)=O)=CC[C@H]4[C@@H](C2)N(C)CC[C@]314 [Compound KC-37, N-(hydrocodone-6-enol-carbonyl)-R-(piperidine-2-methylamine)-L-arginine -L-alanine-acetate]
HC formation rate [6]: 0.004 ± 0.00 μmol/h/BAEE U

COc1ccc2c3c1O[C@H]1C(OC(=O)N4CCCC[C@@H]4CNC(=O)[C@H](CCCNC(=N)N)NC(C)=O)=CC[C@H]4[C@@H](C2)N(C)CC[C@]314 [Compound KC-38, N-(hydrocodone-6-enol-carbonyl)-R-(piperidine-2-methylamine)-L-arginine-acetate]
half-life at 0.761 mM [1]: 7.2 ± 0.6 min | HC formation rate [6]: 0.001 ± 0.00 μmol/h/BAEE U

COc1ccc2c3c1O[C@H]1C(OC(=O)N4CCCC[C@@H]4CNC(=O)[C@H](CCCNC(=N)N)NC(=O)CC(=O)O)=CC[C@H]4[C@@H](C2)N(C)CC[C@]314 [Compound KC-39, N-(hydrocodone-6-enol-carbonyl)-R-(piperidine-2-methylamine)-L-arginine-malonate]
half-life at 0.761 mM [1]: 23.9 min | HC formation rate [6]: 0.00 ± 0.00 μmol/h/BAEE U

CC[C@@H](c1cccc(OC(=O)N2CCCCC2CNC(=O)[C@@H](CCCNC(=N)N)NC(=O)CC(=O)O)c1)[C@@H](C)CN(C)C (stereo partly drawn) [Compound TP-5, N-(Tapentadol-carbonyl)piperidine-2-methylamine-L-arginine-malonate]
half-life ([7]; with Compound 109 (trypsin inhibitor), 8 µM): 62.4 ± 0.0366 min | half-life [7]: 3.99 ± 0.00024 min | Rate of TP formation, Average ± sd ([8]; Compound 109 0 μM): 0.684 ± 0.036 μmol/h/BAEE U | Rate of TP formation, Average ± sd ([8]; Compound 109 8 μM): 0.1043 ± 0.0049 μmol/h/BAEE U

COc1ccc2c3c1O[C@H]1C(=O)CC[C@H]4[C@@H](C2)N(C)CC[C@]314 [Hydrocodone, hydrocodone]
Cmax [9]: 5.49 ± 1.7 ng/mL | Tmax [9]: 63.6 ± 43.2 min | HC Cmax ± sd ([10]; Table 12: dog, […] values adjusted to expected value for a 2 μmol/kg dose (4 dose equivalents)): 56.0 n/a^ ng/mL | HC Cmax ± sd ([10]; Table 12: dog, […] values adjusted to expected value for a 5 μmol/kg dose (10 dose equiv)): 140 n/a^ ng/mL | HC Cmax ± sd ([10]; Table 13: dog plasma, PO, hydrocodone […] (0.5 μmol/kg)): 14.0 ± 4.3^ ng/mL | HC Cmax ± sd ([10]; Table 13: dog, […] values adjusted to expected value for a 5 μmol/kg dose (10 dose equiv)): 140 n/a^ ng/mL | Tmax ([11]; Sprague Dawley, plasma, po, […]): 63.6 min | Cmax ([11]; Sprague Dawley, plasma, po, […], Table 11A: hydrocodone values in Table 10 adjusted to provide expected values at a […] (62 μmol/kg) dose): 11.9 ng/mL | Cmax ([11]; Sprague Dawley, plasma, po, […], Table 11B: hydrocodone values in Table 10 adjusted to provide expected values at a 62 μmol/kg ([…]) dose): 12.4 ng/mL | Tmax ± sd ([11]; Table 11B: hydrocodone values in Table 10 adjusted to provide expected values at a 62 μmol/kg ([…]) dose): 63.6 min
